Measured values reported in PubChem BioAssay AID1117361 (Southern Research Institute, 2015).

Biological target: Protein Tat (Human immunodeficiency virus type 1 group M subtype B (isolate HXB2)) (UniProt P04608)
Assay: inhibitors of Tat binding to TAR RNA, dose response, counter-screen for Vif-APOBEC3G degradation inhibitor project, biochemical, fluorescence polarization, FAM-labeled TAR RNA (AID 1117361)

Protein Tat (Human immunodeficiency virus type 1 group M subtype B (isolate HXB2)), sequence (P04608 whole entry, looked up): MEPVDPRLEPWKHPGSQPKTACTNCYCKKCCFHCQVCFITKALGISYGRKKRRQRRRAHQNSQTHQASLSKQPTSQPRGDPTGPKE

SMILES	IC50
COc1cccc(C2C(C#N)=C(N)OC3=C2C(=O)CC(c2ccco2)C3)c1OCc1ccc(F)cc1 (stereo unspecified)	12.2 µM
O=C(Nc1nc(-c2ccco2)c(-c2ccco2)s1)C1CCC1	2.65 µM
CC(=O)N1CCN(c2nc(-c3ccco3)c3c(c2C#N)CC(C)(C)SC3)CC1	58.8 µM
O=c1oc2c3c4c(cc2s1)CCCN4CCC3	26 µM
CCOC(=O)c1cc2cc(F)ccc2nc1C	6.24 µM
COC(C(=O)C(O)C(C)O)C1Cc2cc3cc(OC4CC(OC5CC(O)C(O)C(C)O5)C(O)C(C)O4)c(C)c(O)c3c(O)c2C(=O)C1OC1CC(OC2CC(OC3CC(O)C(OC)C(C)O3)C(O)C(C)O2)C(O)C(C)O1 (stereo unspecified)	27.9 µM
O=[N+]([O-])c1ccc(N/N=C/c2ccc(O)c(O)c2O)c(S(=O)(=O)N2CCOCC2)c1	34 µM
O=C(Cc1cccs1)N/N=C/C=C/c1ccco1	8.22 µM
O=C(CSc1nnnn1-c1ccccc1)Nc1ncc2c(n1)CC(c1ccco1)CC2=O (stereo unspecified)	58.5 µM
O=[N+]([O-])c1ccc(Sc2nc3ccccc3o2)c([N+](=O)[O-])c1	16.4 µM
CNc1ccccc(-c2ccc3cc4c(cc3n2)OCO4)c1=O	2.22 µM
O=C(CCS(=O)(=O)c1ccc(Br)cc1)NC1CCCC1	50.8 µM
O=C(O)C[C@@H]1C(=O)O[C@@H]2C(COC(=O)c3cc(O)c(O)c(O)c3)O[C@@H](OC(=O)c3cc(O)c(O)c(O)c3)[C@@H](OC(=O)c3cc(O)c(O)c4c3[C@H]1[C@H](O)C(=O)O4)[C@H]2OC(=O)c1cc(O)c(O)c(O)c1 (stereo partly specified)	0.556 µM
COc1cccc(-c2cn3nc4c(nc3n2)CCCC4)c1	100 µM
CCCSC1=N/C(=C\c2ccc([N+](=O)[O-])o2)C(=O)S1	7.37 µM
C=CCNc1nc2ccccc2nc1NS(=O)(=O)c1cccs1	45 µM
O=C1CC(=O)N(Cc2ccco2)C(=S)N1	1.56 µM
O=[N+]([O-])c1c(NCCCO)cc(SCc2ccco2)c2nonc12	16.5 µM
NC(=O)c1cc(N)ccc1N1CCCC1	2.17 µM
CCN1C(=O)/C(=C\c2ccco2)C(C(=O)OC)=C1C	81.8 µM
CCOC(=O)Cc1cc(=O)n2[nH]c(C)cc2n1	78.3 µM
Cc1c(Cl)cccc1NS(=O)(=O)c1ccc2c(c1)C1C=CCC1C(c1ccc(C(=O)O)cc1)N2 (stereo unspecified)	8.54 µM
CCOc1ccccc1C(O)C1=CC(=O)c2ccccc2C1=O (stereo unspecified)	77.7 µM

SMILES	IC50
CC1(c2ccc3noc(-c4ccccc4)c3c2)OCCO1	2.87 µM
O=C(O)c1c2c(nc3ccc(Cl)cc13)CCC2	13.2 µM
Cc1ccccc1NC(=O)c1c(C)[nH]c(=S)c(C#N)c1-c1ccco1	8.91 µM
C=C(C)C(=O)Nc1ccc2c(c1)OCCOCCOCCO2	21.6 µM
Cc1cc(C)nc(N2CCC(C(=O)O)CC2)n1	72.8 µM
O=C(CCCCCN1C(=O)CCC1=O)Nc1ccc(Cl)c(C(F)(F)F)c1	16.4 µM
COC/C=C/C1=CC2=CC(=O)C(C)(OC(=O)C3CCCC3)C(=O)C2=CO1 (stereo unspecified)	10.5 µM
CN1CCc2cccc3c2[C@H]1Cc1ccc(O)c(O)c1-3	19.1 µM
C=C(C)C(=O)Nc1cccc(C2=NOC3(C2)C[C@H](C(N)=O)N(C(=O)C(c2ccccc2)c2ccccc2)C3)c1 (stereo partly specified)	31.7 µM
CC(C)c1ccc(N2C(=O)NC(=O)/C(=C\C=C\c3ccco3)C2=O)cc1	34.2 µM
Cc1nc2cc(-c3ccsc3-n3c(C)ccc3C)[nH]n2c(=O)c1Cl	2.17 µM
COC(=O)c1ccccc1-c1c2ccc(=N)cc-2oc2cc(N)ccc12	< 0.19 µM
O=C1CCC/C1=C/Nc1ccc2c(c1)OCO2	19.7 µM
O=C1C2C3CCCC3=C3CCCC3C2C(=O)N1c1ccccc1 (stereo unspecified)	8.28 µM
Cc1cccc(N(C(=O)Cn2nnc3ccccc32)C(C(=O)NCc2ccco2)c2ccncc2)c1C (stereo unspecified)	27.6 µM
C[n+]1cccc2cccc([O-])c21	13.7 µM
C(=C\c1ccco1)/c1ccc2ccccc2n1	9.39 µM
Cc1ccc(S(=O)(=O)Cn2nnnc2C(CC(C)C)N2CCN(C)CC2)cc1 (stereo unspecified)	22.6 µM
COc1ccc(NC(=O)CC2Nc3cccc4cccc(c34)NC2=O)cc1 (stereo unspecified)	7.03 µM
COc1cccc(C2CC(c3ccccc3OC)n3nc(N)nc3N2)c1 (stereo unspecified)	0.686 µM
CC1C/C(=C/c2ccco2)C(=O)/C(=C/c2ccco2)C1 (stereo unspecified)	3.92 µM
CC(C)(CS(=O)(=O)[O-])NC(=O)CC[N+](C)(C)CCO	17.5 µM
CN(C)c1ncc(C2=C(Cl)C(=O)C(N3CCCC3)=C(Cl)C2=O)s1	1.54 µM

SMILES	IC50
COc1ccc(OC)c(N2C(=O)[C@@H]3C(c4ccccc4Cl)=NO[C@@H]3C2=O)c1	82.1 µM
CC(=C/C(=O)O)/C=C/c1ccc(Cl)o1	92 µM
COC(=O)C1=COC(C)C2CN3CCc4c([nH]c5ccccc45)C3CC12 (stereo unspecified)	7.63 µM
CC1=C(C#N)C(=O)N(C2CCS(=O)(=O)C2)C(=O)/C1=C\c1ccc(C)o1 (stereo unspecified)	1.35 µM
COc1ccc2nc(-c3ccco3)c(-c3ccco3)nc2c1	3.13 µM
O=C(C1CCCN1S(=O)(=O)c1cccc2cccnc12)N1CCN(c2ccccc2)CC1 (stereo unspecified)	46.8 µM
CCC(=O)NC1=C(Cl)C(=O)C(NC(=O)CC)=C(Cl)C1=O	79.8 µM
O=C(NCc1ccccc1)c1ccc2nc(-c3ccco3)c(-c3ccco3)nc2c1	4.55 µM
O=C1CCCC(O)=C1N=Nc1ccc(C(=O)O)cc1	6.47 µM
CC1=CC(C)(C)Nc2ccc(OC(=O)CN3C(=O)c4cccc5cccc(c45)C3=O)cc21	15.3 µM
Oc1ccc(NCc2ccccc2OCc2ccccc2)cc1	51.6 µM
COCCCNC(=O)/C(C#N)=C/c1ccc(OCC(=O)O)c(OC)c1	34.4 µM
O=C(/C(=N/N=C/c1ccc(O)c(O)c1O)c1ccccc1)c1ccccc1	35.2 µM
CC(=O)c1sc2nc(-c3ccco3)ccc2c1N	4.64 µM
CCN1C[C@@H]2[C@@H]3C(=O)N(Cc4ccccc4)C(=O)[C@@H]3[C@](C)(C(=O)OC)N2C1=NC1CCCCC1	79.8 µM
COc1cc2c(cc1N)-c1ccc(N)cc1C2	2.51 µM
Cc1cccc(/C=C(\C(=O)O)c2ccc(S(=O)(=O)N3CCCC3)s2)c1	98 µM
C=CCOC(=O)C1=C(C)NC(SCC(=O)Nc2ccccc2)=C(C#N)C1c1ccco1 (stereo unspecified)	57.5 µM
O=C1CC(Nc2ccc(N3CCOCC3)cc2)C(=O)N1C1CCCCC1 (stereo unspecified)	11.6 µM
Clc1ccccc1N=Nc1ccccn1	35 µM
NC(=O)Cn1c(=O)n(Cc2ccco2)c(=O)c2c3c(sc21)CCCCC3	15.5 µM
O=S(=O)(O)c1cc(Cl)cc(N=Nc2ccc(O)cc2O)c1O	22.5 µM
CC1(OC(=O)CCc2ccccc2)C(=O)C=C2C=C(c3ccsc3)OC=C2C1=O (stereo unspecified)	65.8 µM

SMILES	IC50
CN(CCc1ccccc1)C(=O)c1ccc(NC(=O)Cc2ccc(NC(=O)C3CCN(C(=O)CCc4ccccc4)CC3)cc2)cc1	44.3 µM
COCCNC(=O)Nc1ccc2nc(-c3ccco3)c(-c3ccco3)nc2c1	2.17 µM
NS(=O)(=O)c1ccc2c(c1)C1C=CCC1C(C1CC=CCC1)N2 (stereo unspecified)	9.98 µM
O=C1C2C3C=CC(C3)C2C(=O)N1CNc1ccc(O)cc1 (stereo unspecified)	25.7 µM
O=c1cc(-c2ccccc2Cl)c2c([nH]1)CCC2	18.8 µM
CCCn1c(=N)n(CC(O)c2ccco2)c2ccccc21 (stereo unspecified)	78.2 µM
O=C(O)CCCCC1CCSS1 (stereo unspecified)	5.89 µM
COc1cc(OC)c2c(O)c3c(c(-c4c5c(c(O)c6c(OC)cc(OC)cc46)CO[C@@H](C)[C@H]5O)c2c1)[C@H](O)[C@H](C)OC3	30.8 µM
COC(=O)c1ccc(CC(=O)c2c(C)cc(O)cc2O)o1	11.2 µM
CCOC(=O)c1c(C)oc2c1c(C=NCc1ccccn1)c(O)c1ccccc12	4.15 µM
O=C(NC(=S)Nc1cccc(S(=O)(=O)NC2=NCCC2)c1)c1cc(-c2ccco2)nc2ccccc12	8.04 µM
O=C(N/N=C/C=C/c1ccco1)c1cccs1	11.6 µM
COc1ccc(-c2cc(C(=O)N/N=C/c3ccc(OC)c(COCC(F)(F)C(F)F)c3)c3ccccc3n2)c(OC)c1	99.4 µM
CN1CCc2c(sc3c2c(NCc2ccco2)nc2nnnn23)C1	79.8 µM
C=CC(=O)N1C/C(=C/c2ccc(F)cc2)C(=O)/C(=C\c2ccc(F)cc2)C1	89.5 µM
O=C1c2ccccc2C(=O)N1/N=C/c1ccc(O)c(O)c1O	14.7 µM
O=[N+]([O-])c1cc(-c2ccc(/C=N/c3nc4ccccn4c3-c3ccco3)o2)ccc1Cl	28.7 µM
O=C(CN1C(=O)NC2(CCCCCCC2)C1=O)NCc1cccs1	36.5 µM
COC(=O)CCC(=O)OC1(C)C(=O)C2=CN(CCCOC(C)C)C(c3ccc(OC)cc3)=CC2=C(Br)C1=O (stereo unspecified)	19.1 µM
CC(/C=C1\SC(=S)N(CCCC(=O)Nc2ccc(C(=O)O)c(O)c2)C1=O)=C\c1ccccc1	26 µM
CN(C)c1ccc(N2C(=O)CC(Nc3ccc(N4CCOCC4)cc3)C2=O)cc1 (stereo unspecified)	9.99 µM
Cc1cc(C)cc(Nc2ccc(C(=O)O)cc2N)c1	47.1 µM
CC(=O)NN1C(=O)/C(=C/c2ccc(Br)o2)SC1=S	36.2 µM

SMILES	IC50
Cc1nn(-c2ccccc2)c2sc(C(=O)N3CCc4ccccc4C3)cc12	40.1 µM
Brc1c(CSc2nnc(-c3ccco3)o2)nc2ccccn12	23.9 µM
Cc1cc(C(=O)CSc2nnnn2-c2ccccc2)c(C)n1CC1CCCO1 (stereo unspecified)	35 µM
Cc1c(O)cc2c(c1O)C(=O)CC(c1ccc(O)cc1)O2 (stereo unspecified)	37.2 µM
Cc1cccc(NC(=O)CSc2nnc(-c3ccco3)c(-c3ccco3)n2)c1C	15 µM
Cc1ccc(C(=O)Nc2ccc(O)c(C(=O)O)c2)o1	19.4 µM
c1cnc(N2CCN(c3cnccn3)CC2)nc1	71.9 µM
COC(=O)c1ccc(COc2ccc(/C=N/Nc3cccc(C(=O)O)c3)cc2)cc1	62.4 µM
CC1CCCN(Cc2c(O)ccc3c2O/C(=C\c2ccco2)C3=O)C1 (stereo unspecified)	5.6 µM
CC1(C)CCCN(C(=O)c2coc(=O)c(Br)c2)C1	7.77 µM
CNc1ccc(Br)cc(C(=O)/C=C/c2ccc(OC)cc2OC)c1=O	52 µM
CCOc1cc(N2CCOCC2)c(OCC)cc1NS(=O)(=O)c1ccc(Cl)s1	14.9 µM
COC(=O)c1ccccc1NC(=O)C1CCCC1	4.92 µM
CC1=CC(=Nc2c(C)n(C)n(-c3ccccc3)c2=O)C=CC1=O	14.5 µM
O=C(NC1CC1)c1cc(-c2ccco2)nc2ccccc12	9.27 µM
COC/C=C/C1=CC2=CC(=O)C(C)(OC(=O)CCC(=O)OC)C(=O)C2=CO1 (stereo unspecified)	8.1 µM
Cc1ccc(NC(=O)CN2C(=O)N/C(=C/c3ccco3)C2=O)cc1	36 µM
CN(C(=S)Nc1cccnc1)c1ccc(O)cc1	27 µM
CCOC1(OCC)N=C(N)C2(C#N)C(c3cccc(OC)c3OC)C12C#N (stereo unspecified)	1.59 µM
